Key:
Test in all cases: relative viability (nuclei count vs DMSO), 5 days (fraction); higher = more cells survive
Salubrinal + Dasatinib = compound: O=C(/C=C/c1ccccc1)NC(NC(=S)Nc1cccc2cccnc12)C(Cl)(Cl)Cl [Salubrinal] + Cc1nc(Nc2ncc(C(=O)Nc3c(C)cccc3Cl)s2)cc(N2CCN(CCO)CC2)n1 [Dasatinib] (partner 0.075 µM)
Method in brief: (§1)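 Lung cancer cell lines were pin-tool dosed in 1536-well plates on the day after seeding, with either a lone drug or a fixed anchor-drug dose plus five library-drug doses (not always all listed) in √10 steps. Nuclei were counted on 4× images after 5 days. Relative viability is the ratio of treated-well to vehicle-well nuclei counts, with each value a median of duplicate plates.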

Salubrinal + Luminespib = compound: O=C(/C=C/c1ccccc1)NC(NC(=S)Nc1cccc2cccnc12)C(Cl)(Cl)Cl [Salubrinal] + CCNC(=O)c1noc(-c2cc(C(C)C)c(O)cc2O)c1-c1ccc(CN2CCOCC2)cc1 [Luminespib] (partner 0.01 µM)
Method in brief: as §1

[1] = compound: Cc1ccc2nc(NCCN)c3ncc(C)n3c2c1 + CC1(C)CCC(c2ccc(Cl)cc2)=C(CN2CCN(c3ccc(C(=O)NS(=O)(=O)c4ccc(N[C@H](CCN5CCOCC5)CSc5ccccc5)c(S(=O)(=O)C(F)(F)F)c4)cc3)CC2)C1 [Navitoclax] (partner 0.5 µM)
Method in brief: as §1

[2] = compound: Cc1ccc2nc(NCCN)c3ncc(C)n3c2c1 + CS(=O)(=O)CCNCc1ccc(-c2ccc3ncnc(Nc4ccc(OCc5cccc(F)c5)c(Cl)c4)c3c2)o1 [Lapatinib] (partner 2 µM)
Method in brief: as §1

Row | Cell Line | relative viability (Salubrinal + Dasatinib; first compound 0.08 µM) | relative viability (Salubrinal + Dasatinib; first compound 0.253 µM) | relative viability (Salubrinal + Dasatinib; first compound 0.8 µM) | relative viability (Salubrinal + Dasatinib; first compound 2.53 µM) | relative viability (Salubrinal + Dasatinib; first compound 8 µM) | relative viability (Salubrinal + Luminespib; first compound 0.08 µM) | relative viability (Salubrinal + Luminespib; first compound 0.253 µM) | relative viability (Salubrinal + Luminespib; first compound 0.8 µM) | relative viability (Salubrinal + Luminespib; first compound 2.53 µM) | relative viability (Salubrinal + Luminespib; first compound 8 µM) | relative viability ([1]; first compound 0.04 µM) | relative viability ([1]; first compound 0.1265 µM) | relative viability ([1]; first compound 0.4 µM) | relative viability ([1]; first compound 1.265 µM) | relative viability ([1]; first compound 4 µM) | relative viability ([2]; first compound 0.04 µM) | relative viability ([2]; first compound 0.1265 µM) | relative viability ([2]; first compound 0.4 µM) | relative viability ([2]; first compound 1.265 µM) | relative viability ([2]; first compound 4 µM)
1 | NCI-H1975 | 0.363 | 0.369 | 0.376 | 0.374 | 0.3 | 0.223 | 0.394 | 0.292 | 0.257 | 0.282 | 1.06 | 1.12 | 1.08 | 0.952 | 0.863 | 1.01 | 0.925 | 0.935 | 0.95 | 0.849
2 | NCI-H2342 | 0.304 | 0.278 | 0.305 | 0.298 | 0.291 | 0.779 | 0.662 | 0.714 | 0.601 | 0.799 |  |  |  |  |  |  |  |  |  | 
3 | HCC-44 |  |  |  |  |  | 1.32 | 1.08 | 1.09 | 1.02 | 0.894 | 1.1 | 0.901 | 0.951 | 0.829 | 0.937 | 0.961 | 0.993 | 1.01 | 0.99 | 1.01
4 | NCI-H1703 |  |  |  |  |  |  |  |  |  |  | 1.3 | 0.881 | 1 | 1.18 | 0.707 | 1.15 | 0.958 | 1.03 | 1.19 | 0.997
5 | Calu-6 |  |  |  |  |  |  |  |  |  |  | 0.829 | 0.799 | 1.05 | 0.807 | 0.321 | 1.09 | 1.03 | 1.07 | 1.07 | 0.737
6 | EBC-1 |  |  |  |  |  |  |  |  |  |  | 0.388 | 0.393 | 0.327 | 0.334 | 0.191 | 0.207 | 0.201 | 0.233 | 0.179 | 0.191
7 | HCC-78 | 0.404 | 0.343 | 0.688 | 0.361 | 0.363 |  |  |  |  |  | 0.919 | 0.8 | 0.778 | 0.757 | 0.689 | 1.03 | 0.738 | 0.775 | 0.861 | 0.697
8 | IA-LM |  |  |  |  |  |  |  |  |  |  | 0.792 | 0.779 | 0.707 | 0.623 | 0.587 | 1.02 | 0.833 | 0.581 | 1 | 0.7
9 | NCI-H1623 | 0.475 | 0.485 | 0.54 | 0.514 | 0.572 | 0.465 | 0.648 | 0.541 | 0.435 | 0.441 |  |  |  |  |  |  |  |  |  | 
10 | NCI-H650 | 0.425 | 0.462 | 0.462 | 0.474 | 0.413 | 0.753 | 0.791 | 0.845 | 0.786 | 0.767 |  |  |  |  |  | 0.927 | 0.123 | 0.645 | 0.969 | 0.761
11 | ChaGo-K-1 | 0.685 | 0.544 | 0.667 | 0.57 | 0.524 | 0.633 | 0.581 | 0.604 | 0.437 | 0.588 | 0.983 | 1.15 | 0.913 | 0.976 | 0.782 |  |  |  |  | 
12 | NCI-H522 | 0.988 | 0.976 | 0.981 | 0.869 | 0.972 | 1.13 | 0.97 | 1.13 | 1.12 | 1.11 |  |  |  |  |  |  |  |  |  | 
13 | NCI-H1299 |  |  |  |  |  |  |  |  |  |  | 1.02 | 1.04 | 1.06 | 1.02 | 0.898 | 0.957 | 0.935 | 0.954 | 0.911 | 0.809
14 | SW 900 | 1.09 |  | 0.66 | 0.584 | 0.497 | 0.173 |  | 0.175 | 0.189 | 0.207 |  |  |  |  |  |  |  |  |  | 
15 | NCI-H358 | 0.173 | 0.23 | 0.154 | 0.149 | 0.145 | 0.277 |  | 0.553 | 0.478 | 0.38 |  |  |  |  |  | 0.549 | 0.486 | 0.434 | 0.508 | 0.511
16 | HCC-366 | 0.813 | 0.497 | 0.777 | 0.555 | 0.528 |  |  |  |  |  | 1.26 | 1.07 | 1.03 | 0.997 | 1.02 | 1.14 | 0.91 | 1.11 | 1.07 | 0.998
17 | A549 |  |  |  |  |  |  |  |  |  |  | 1.27 | 1.25 | 1.37 | 1.2 | 0.955 | 1.23 | 0.941 | 0.918 | 1 | 0.83
18 | NCI-H661 | 0.995 | 0.921 | 0.928 | 0.871 | 0.86 | 0.912 | 0.763 | 0.919 | 0.905 | 0.941 |  |  |  |  |  | 0.587 | 0.407 | 0.43 |  | 0.458
19 | NCI-H1563 | 0.446 | 0.514 | 0.555 | 0.453 | 0.502 | 0.572 | 0.501 | 0.521 | 0.488 | 0.506 |  |  |  |  |  | 0.963 | 1 | 0.88 | 1.15 | 0.88
20 | ABC-1 | 0.54 | 0.508 | 0.633 | 0.634 | 0.554 | 0.559 |  | 0.8 | 0.473 | 0.728 |  |  |  |  |  | 1.18 | 1.16 | 1.12 | 0.783 | 1.03
21 | LCLC-103H | 0.501 | 0.35 | 0.514 | 0.53 | 0.507 | 1.11 | 0.82 | 1.02 | 1.04 | 0.916 |  |  |  |  |  |  |  |  |  | 
22 | NCI-H441 | 0.781 | 0.5 | 0.756 | 0.65 | 0.47 | 0.312 | 0.39 | 0.393 | 0.338 | 0.385 | 0.56 | 0.684 | 1.03 | 0.401 | 0.635 |  |  |  |  | 
